Species: Rattus norvegicus
Assay: Open TG-GATES - Regimen: Single
Type: toxicity, organism-based, Sprague-Dawley
Parameters: regimen Single, gender Male, age 6 weeks
Settings: in vivo, po, 0 mg/kg, route gavage, dose level Control; for APTT / Bas / Eos / Fbg / Hb / Ht / Lym / MCH / MCHC / MCV / Mono / Neu / PT / Plat / RBC / Ret / WBC: tissue Blood; for KIDNEY_L / KIDNEY_R / KIDNEY_TOTAL: tissue Kidney; for LIVER: tissue Liver; for A/G / ALP / ALT / AST / BUN / CRE / Ca / Cl / DBIL / GLC / IP / K / LDH / Na / PL / RALB / TBIL / TC / TG / TP / gamma-GTP: tissue Plasma

What does the source list for Nc1ccc(Cc2ccc(N)cc2)cc1?
TERMINAL_BW (3 h): 209.4 g; APTT (3 h): 13.9 s; Bas (3 h): 0%; Eos (3 h): 0.6%; Fbg (3 h): 263.2 mg/dL; Hb (3 h): 12.7 g/dL; Ht (3 h): 37.3%; Lym (3 h): 73.6%; MCH (3 h): 21.8 pg; MCHC (3 h): 34.1%; MCV (3 h): 63.9 fL; Mono (3 h): 3%; Neu (3 h): 21.2%; PT (3 h): 11.7 s; Plat (3 h): 145.5 x10_4/uL; RBC (3 h): 584.2 x10_4/ul; Ret (3 h): 9.5%; WBC (3 h): 100 x10_2/uL; KIDNEY_L (3 h): 0.9 g; KIDNEY_R (3 h): 0.9 g; KIDNEY_TOTAL (3 h): 1.8 g; LIVER (3 h): 9.5 g; A/G (3 h): 0.8; ALP (3 h): 1787.8 IU/L; ALT (3 h): 46.8 IU/L; AST (3 h): 90.8 IU/L; BUN (3 h): 9.8 mg/dL; CRE (3 h): 0.2 mg/dL; Ca (3 h): 11 mg/dL; Cl (3 h): 106.8 meq/L; DBIL (3 h): 0.024 mg/dL; GLC (3 h): 158.2 mg/dL; IP (3 h): 9.1 mg/dL; K (3 h): 3.7 meq/L; LDH (3 h): 72.6 IU/L; Na (3 h): 141.2 meq/L; PL (3 h): 149.8 mg/dL; RALB (3 h): 2.5 g/dL; TBIL (3 h): 0.056 mg/dL; TC (3 h): 76.8 mg/dL; TG (3 h): 128.2 mg/dL; TP (3 h): 5.6 g/dL; gamma-GTP (3 h): 1 IU/L; TERMINAL_BW (6 h): 206.4 g; APTT (6 h): 14.9 s; Bas (6 h): 0%; Eos (6 h): 1%; Fbg (6 h): 279.2 mg/dL; Hb (6 h): 13 g/dL; Ht (6 h): 38%; Lym (6 h): 74.2%; MCH (6 h): 21.4 pg; MCHC (6 h): 34.1%; MCV (6 h): 62.8 fL; Mono (6 h): 2.6%; Neu (6 h): 21.6%; PT (6 h): 11.6 s; Plat (6 h): 134.9 x10_4/uL; RBC (6 h): 606 x10_4/ul; Ret (6 h): 8%; WBC (6 h): 104.9 x10_2/uL; KIDNEY_L (6 h): 0.9 g; KIDNEY_R (6 h): 0.9 g; KIDNEY_TOTAL (6 h): 1.8 g; LIVER (6 h): 8.5 g; A/G (6 h): 0.8; ALP (6 h): 1552.8 IU/L; ALT (6 h): 35.2 IU/L; AST (6 h): 75 IU/L; BUN (6 h): 9 mg/dL; CRE (6 h): 0.2 mg/dL; Ca (6 h): 10.8 mg/dL; Cl (6 h): 107.4 meq/L; DBIL (6 h): 0.024 mg/dL; GLC (6 h): 165 mg/dL; IP (6 h): 10 mg/dL; K (6 h): 4.2 meq/L; LDH (6 h): 67 IU/L; Na (6 h): 141.8 meq/L; PL (6 h): 131.6 mg/dL; RALB (6 h): 2.5 g/dL; TBIL (6 h): 0.062 mg/dL; TC (6 h): 71.2 mg/dL; TG (6 h): 59.4 mg/dL; TP (6 h): 5.7 g/dL; gamma-GTP (6 h): 1.4 IU/L; TERMINAL_BW (9 h): 204.2 g; APTT (9 h): 14.5 s; Bas (9 h): 0%; Eos (9 h): 0.8%; Fbg (9 h): 277 mg/dL; Hb (9 h): 12.7 g/dL; Ht (9 h): 37.3%; Lym (9 h): 73.4%; MCH (9 h): 21.1 pg; MCHC (9 h): 34.2%; MCV (9 h): 61.8 fL; Mono (9 h): 1.8%; Neu (9 h): 23.6%; PT (9 h): 11.7 s; Plat (9 h): 137.5 x10_4/uL; RBC (9 h): 603.8 x10_4/ul; Ret (9 h): 8%; WBC (9 h): 65.4 x10_2/uL; KIDNEY_L (9 h): 0.9 g; KIDNEY_R (9 h): 0.9 g; KIDNEY_TOTAL (9 h): 1.7 g; LIVER (9 h): 7.8 g; A/G (9 h): 0.8; ALP (9 h): 1332.6 IU/L; ALT (9 h): 27.4 IU/L; AST (9 h): 64.4 IU/L; BUN (9 h): 8.8 mg/dL; CRE (9 h): 0.2 mg/dL; Ca (9 h): 10.5 mg/dL; Cl (9 h): 106.4 meq/L; DBIL (9 h): 0.018 mg/dL; GLC (9 h): 174.2 mg/dL; IP (9 h): 10.5 mg/dL; K (9 h): 4 meq/L; LDH (9 h): 58.2 IU/L; Na (9 h): 143 meq/L; PL (9 h): 129.6 mg/dL; RALB (9 h): 2.5 g/dL; TBIL (9 h): 0.064 mg/dL; TC (9 h): 77.8 mg/dL; TG (9 h): 42.4 mg/dL; TP (9 h): 5.6 g/dL; gamma-GTP (9 h): 1 IU/L; TERMINAL_BW (24 h): 219.7 g; APTT (24 h): 12.6 s; Bas (24 h): 0%; Eos (24 h): 1%; Fbg (24 h): 258.8 mg/dL; Hb (24 h): 13.1 g/dL; Ht (24 h): 37.9%; Lym (24 h): 73.2%; MCH (24 h): 21.2 pg; MCHC (24 h): 34.5%; MCV (24 h): 61.6 fL; Mono (24 h): 1.8%; Neu (24 h): 23.2%; PT (24 h): 11.4 s; Plat (24 h): 146.9 x10_4/uL; RBC (24 h): 616.8 x10_4/ul; Ret (24 h): 6.8%; WBC (24 h): 88.9 x10_2/uL; KIDNEY_L (24 h): 0.9 g; KIDNEY_R (24 h): 0.9 g; KIDNEY_TOTAL (24 h): 1.9 g; LIVER (24 h): 9.5 g; A/G (24 h): 0.9; ALP (24 h): 1942.2 IU/L; ALT (24 h): 38.6 IU/L; AST (24 h): 74 IU/L; BUN (24 h): 14.6 mg/dL; CRE (24 h): 0.2 mg/dL; Ca (24 h): 10.9 mg/dL; Cl (24 h): 106.4 meq/L; DBIL (24 h): 0.02 mg/dL; GLC (24 h): 167 mg/dL; IP (24 h): 7.7 mg/dL; K (24 h): 3.9 meq/L; LDH (24 h): 49.2 IU/L; Na (24 h): 143.2 meq/L; PL (24 h): 135.4 mg/dL; RALB (24 h): 2.6 g/dL; TBIL (24 h): 0.044 mg/dL; TC (24 h): 72 mg/dL; TG (24 h): 89.6 mg/dL; TP (24 h): 5.5 g/dL; gamma-GTP (24 h): 1 IU/L

From ChEMBL document CHEMBL3885861, “Open TG-GATES”
